Reference: PubChem BioAssay (NCI)
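Where inhibition never reached the appropriate level, the endpoint shown equals the highest concentration tested. Otherwise, values were interpolated linearly from a five-concentration, 48-hour dose response in 96-well plates. TGI: total growth inhibition.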

Assays:
Experiment in all cases: inhibition of tumour cell growth, NCI panel, 48 h
[1] = test system: OVCAR-8 ovarian
[2] = test system: A549 NSCLC
[3] = test system: HOP-62 NSCLC
[4] = test system: IGROV1 ovarian
[5] = test system: M14 melanoma
[6] = test system: NCI-H460 lung
[7] = test system: HT29 colon
[8] = test system: LOX IMVI melanoma
[9] = test system: HOP-92 NSCLC
[10] = test system: SK-MEL-2 melanoma
[11] = test system: DMS 114 small cell lung
[12] = test system: NCI-H522 lung
[13] = test system: EKVX NSCLC
[14] = test system: COLO 205 colon
[15] = test system: SF-268 CNS
[16] = test system: UACC-62 melanoma
[17] = test system: SF-295 CNS
[18] = test system: SK-OV-3 ovarian
[19] = test system: SF-539 CNS
[20] = test system: SW-620 colon
[21] = test system: HCT-15 colon
[22] = test system: DLD-1 colon
[23] = test system: CAKI-1 renal
[24] = test system: M19-MEL melanoma
[25] = test system: MOLT-4 leukemia
[26] = test system: OVCAR-5 ovarian
[27] = test system: HCT-116 colon
[28] = test system: OVCAR-4 ovarian
[29] = test system: SN12C renal
[30] = test system: K-562 leukemia
[31] = test system: CCRF-CEM leukemia
[32] = test system: 786-0 renal
[33] = test system: RPMI-8226 leukemia
[34] = test system: SK-MEL-5 melanoma
[35] = test system: KM12 colon
[36] = test system: HL-60(TB) leukemia
[37] = test system: ACHN renal
[38] = test system: SR leukemia
[39] = test system: LXFL 529 NSCLC
[40] = test system: NCI-H226 lung
[41] = test system: MALME-3M melanoma
[42] = test system: UO-31 renal
[43] = test system: OVCAR-3 ovarian

For `CC1CC2C(=O)N(c3ccccc3)C(=O)C2c2c1c1ccccc1n2Cc1ccccc1` (stereo not drawn), the TGI [1] was greater than 100 µM, the TGI [2] was greater than 100 µM and the TGI [3] was greater than 100 µM. For the same molecule, the TGI [4] was greater than 100 µM, the TGI [5] was greater than 100 µM and the TGI [6] was greater than 100 µM. For the same molecule, the TGI [7] was greater than 100 µM, the TGI [8] was greater than 100 µM and the TGI [9] was greater than 100 µM. The TGI [10] was greater than 100 µM, the TGI [11] was greater than 100 µM and the TGI [12] was 92.3 µM. The TGI [13] was greater than 100 µM, the TGI [14] was greater than 100 µM and the TGI [15] was greater than 100 µM. It also gave a TGI [16] greater than 100 µM, a TGI [17] greater than 100 µM and a TGI [18] greater than 100 µM. For the same molecule, the TGI [19] was greater than 100 µM, the TGI [20] was greater than 100 µM and the TGI [21] was greater than 100 µM. The TGI [22] was greater than 100 µM, the TGI [23] was greater than 100 µM and the TGI [24] was greater than 100 µM. The TGI [25] was greater than 100 µM, the TGI [26] was greater than 100 µM and the TGI [27] was greater than 100 µM. The TGI [28] was greater than 100 µM, the TGI [29] was greater than 100 µM and the TGI [30] was greater than 100 µM. It also gave a TGI [31] greater than 100 µM, a TGI [32] greater than 100 µM and a TGI [33] greater than 100 µM. For the same molecule, the TGI [34] was greater than 100 µM, the TGI [35] was greater than 100 µM and the TGI [36] was greater than 100 µM. For the same molecule, the TGI [37] was greater than 100 µM, the TGI [38] was greater than 100 µM and the TGI [39] was greater than 100 µM. The TGI [40] was greater than 100 µM, the TGI [41] was greater than 100 µM and the TGI [42] was greater than 100 µM. It also gave a TGI [43] greater than 100 µM.
